biological target: Human Factor D (Homo sapiens (Human), UniProt P00746); assay: Human Factor D Assay; type: biochemical; settings: Human Factor D 80 nM, substrate Z-L-Lys-SBzl; read-out: IC50
Procedure, shortened: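 Factor D (from human serum) 80 nM final + cpd, 5 min RT, 50 mM Tris/1M NaCl pH 7.5; add Z-L-Lys-SBzl 100 μM and DTNB 100 μM final. IC50 by nonlinear fit of rates vs [cpd].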

Sequence of Human Factor D (P00746 26-253): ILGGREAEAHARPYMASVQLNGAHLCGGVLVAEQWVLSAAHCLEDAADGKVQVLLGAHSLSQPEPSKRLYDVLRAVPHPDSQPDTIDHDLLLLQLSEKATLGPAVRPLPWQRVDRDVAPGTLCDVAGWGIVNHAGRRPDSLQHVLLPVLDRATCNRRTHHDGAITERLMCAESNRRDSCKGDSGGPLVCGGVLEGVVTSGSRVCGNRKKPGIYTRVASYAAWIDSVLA

| Structure (SMILES) | IC50 [µM] |
| --- | --- |
| NC(=O)c1nn(CC(=O)N2C[C@H](F)C[C@H]2C(=O)Nc2cccc(-c3ccccc3Cl)c2F)c2ccc(-c3cn[nH]c3)cc12 [Compound 1] | < 1 |
| NC(=O)c1nn(CC(=O)N2C[C@H](F)C[C@H]2C(=O)Nc2cccc(Cl)c2-n2cncn2)c2ccc(-c3ccnnc3)cc12 [Compound 96, 1-(2-((2S,4R)-2-(3-chloro-2-(1H-1,2,4-triazol-1-yl)phenylcarbamoyl)-4-fluoropyrrolidin-1-yl)-2-oxoethyl)-5-(pyridazin-4-yl)-1H-indazole-3-carboxamide] | > 10 |
| CC(=O)c1cn(CC(=O)N2C[C@H](F)C[C@H]2C(=O)N[C@H]2CCC[C@@H]2OCc2ccccc2)c2ccc(-c3ccnnc3)cc12 [Compound 77, (2S,4R)-1-(2-(3-acetyl-5-(pyridazin-4-yl)-1H-indol-1-yl)acetyl)-N-((1S,2S)-2-(benzyloxy)cyclopentyl)-4-fluoropyrrolidine-2-carboxamide] | > 10 |

same assay, conditions: Human Factor D assay of Example 8; Table 2; read-out: IC50

| Structure (SMILES) | IC50 [µM] |
| --- | --- |
| CC(=O)c1cn(CC(=O)N2[C@@H]3C[C@@H]3C[C@H]2C(=O)Nc2cccc(Br)n2)c2ccc(-c3cnc4cc(C)nn4c3)cc12 [Compound 298, (1R,3S,5R)-2-(2-(3-acetyl-5-(2-methylpyrazolo[1,5-a]pyrimidin-6-yl)-1H-indol-1-yl)acetyl)-N-(6-bromopyridin-2-yl)-2-azabicyclo[3.1.0] hexane-3-carboxamide] | < 1 |
| CC(=O)c1nn(CC(=O)N2C[C@H](F)C[C@H]2C(=O)Nc2cccc(Br)n2)c2ccc(-c3cnc4cccnn34)cc12 [Compound 302, (2S,4R)-1-(2-(3-acetyl-5-(imidazo[1,2-b]pyridazin-3-yl)-1H-indazol-1-yl)acetyl)-N-(6-bromopyridin-2-yl)-4-fluoropyrrolidine-2-carboxamide] | < 1 |
| CC(=O)c1nn(CC(=O)N2C[C@H](F)C[C@H]2C(=O)Nc2cccc(Br)n2)c2ccc(-c3cnc4c(C)cnn4c3)cc12 [Compound 268, (2S,4R)-1-(2-(3-acetyl-5-(3-methylpyrazolo[1,5-a]pyrimidin-6-yl)-1H-indazol-1-yl)acetyl)-N-(6-bromopyridin-2-yl)-4-fluoropyrrolidine-2-carboxamide] | < 1 |
| CC(=O)c1cn(CC(=O)N2C[C@H](F)C[C@H]2C(=O)Nc2cccc(-c3ccccc3Cl)c2F)c2ccc(-c3cnc(C(=O)O)nc3)cc12 [Compound 205, 5-(3-acetyl-1-(2-((2S,4R)-2-(2′-chloro-2-fluorobiphenyl-3-ylcarbamoyl)-4-fluoropyrrolidin-1-yl)-2-oxoethyl)-1H-indol-5-yl)pyrimidine-2-carboxylic acid] | < 1 |
| CC(=O)c1nn(CC(=O)N2C[C@H](F)C[C@H]2C(=O)Nc2cccc(Br)n2)c2ccc(-c3cnc4c(C#N)c(C)nn4c3)cc12 [Compound 262, (2S,4R)-1-(2-(3-acetyl-5-(3-cyano-2-methylpyrazolo[1,5-a]pyrimidin-6-yl)-1H-indazol-1-yl)acetyl)-N-(6-bromopyridin-2-yl)-4-fluoropyrrolidine-2-carboxamide] | < 1 |
| CC(=O)c1nn(CC(=O)N2C[C@H](F)C[C@H]2C(=O)Nc2cc(Cl)sc2C)c2ccc(-c3cnc(C)nc3)cc12 [Compound 229, (2S,4R)-1-(2-(3-acetyl-5-(2-methylpyrimidin-5-yl)-1H-indazol-1-yl)acetyl)-N-(5-chloro-2-methylthiophen-3-yl)-4-fluoropyrrolidine-2-carboxamide] | < 1 |
| CC(=O)c1cn(CC(=O)N2C[C@H](F)C[C@H]2C(=O)Nc2cccc(-c3ccccc3Cl)c2F)c2ccc(-c3cnc4cc(C)nn4c3)cc12 [Compound 300, (2S,4R)-1-(2-(3-acetyl-5-(2-methylpyrazolo[1,5-a]pyrimidin-6-yl)-1H-indol-1-yl)acetyl)-N-(2′-chloro-2-fluorobiphenyl-3-yl)-4-fluoropyrrolidine-2-carboxamide] | < 1 |

same assay, conditions: Human Factor D, Table 3; read-out: IC50

| Structure (SMILES) | IC50 [µM] |
| --- | --- |
| CC(=O)c1nn(CC(=O)N2C[C@H](F)C[C@H]2C(=O)Nc2cccc(Br)n2)c2ccc(-c3cnc(C(=O)O)nc3)cc12 [Compound 598, 5-(3-Acetyl-1-(2-((2S,4R)-2-((6-bromopyridin-2-yl)carbamoyl)-4-fluoropyrrolidin-1-yl)-2-oxoethyl)-1H-indazol-5-yl)pyrimidine-2-carboxylic acid] | < 1 |
| CC(=O)c1nn(CC(=O)N2[C@H](C(=O)Nc3cccc(OC(F)(F)F)n3)C[C@@]3(C)C[C@@H]23)c2ccc(-c3cnc(C)nc3)cc12 [Compound 624, (1R,3S,5R)-2-(2-(3-acetyl-5-(2-methylpyrimidin-5-yl)-1H-indazol-1-yl)acetyl)-5-methyl-N-(6-(trifluoromethoxy)pyridin-2-yl)-2-azabicyclo[3.1.0] hexane-3-carboxamide] | < 1 |
| CC(=O)c1nn(CC(=O)N2C[C@H](F)C[C@H]2C(=O)Nc2nc(OCC(F)(F)F)ccc2C)c2ccc(-c3cnc(C)nc3)cc12 [Compound 601, (2S,4R)-1-(2-(3-Acetyl-5-(2-methylpyrimidin-5-yl)-1H-indazol-1-yl)acetyl)-4-fluoro-N-(3-methyl-6-(2,2,2-trifluoroethoxy)pyridin-2-yl)pyrrolidine-2-carboxamide] | < 1 |
| CC(=O)c1nn(CC(=O)N2C[C@H](F)C[C@H]2C(=O)Nc2cccc(Br)n2)c2ccc(-c3cnc(Cl)nc3)cc12 [Compound 651, (2S,4R)-1-(2-(3-Acetyl-5-(2-chloropyrimidin-5-yl)-1H-indazol-1-yl)acetyl)-N-(6-bromopyridin-2-yl)-4-fluoropyrrolidine-2-carboxamide] | > 10 |
| CC(=O)c1nn(CC(=O)N2C[C@H]3C[C@H]3[C@H]2C(=O)Nc2nc(Br)ccc2C2CC2)c2ccc(-c3cnc(C)nc3)cc12 [Compound 637, (1R,2S,5S)-3-(2-(3-Acetyl-5-(2-methylpyrimidin-5-yl)-1H-indazol-1-yl)acetyl)-N-(6-bromo-3-cyclopropylpyridin-2-yl)-3-azabicyclo[3.1.0]hexane-2-carboxamide] | < 1 |
| CC(=O)c1nn(CC(=O)N2CCCC[C@H]2C(=O)Nc2cccc(Br)n2)c2ccc(-c3cnc(C)nc3)cc12 [Compound 593, (S)-1-(2-(3-Acetyl-5-(2-methylpyrimidin-5-yl)-1H-indazol-1-yl)acetyl)-N-(6-bromopyridin-2-yl)piperidine-2-carboxamide] | < 1 |
| CC(=O)c1nn(CC(=O)N2C[C@H](C)C[C@H]2C(=O)Nc2nc(Br)ccc2C)c2ccc(-c3cnc(C)nc3)cc12 [Compound 644, (2S,4R)-1-(2-(3-Acetyl-5-(2-methylpyrimidin-5-yl)-1H-indazol-1-yl)acetyl)-N-(6-bromo-3-methylpyridin-2-yl)-4-methylpyrrolidine-2-carboxamide] | < 1 |
| Cc1cccc(NC(=O)[C@@H]2C[C@@H](F)CN2C(=O)Cn2nc(C(N)=O)c3sc(-c4cnc5cc(C)nn5c4)nc32)n1 [Compound 714, 1-(2-((2S,4R)-4-Fluoro-2-(6-methylpyridin-2-ylcarbamoyl)pyrrolidin-1-yl)-2-oxoethyl)-5-(2-methylpyrazolo[1,5-a]pyrimidin-6-yl)-1H-pyrazolo[3,4-d]thiazole-3-carboxamide] | > 10 |

same assay, conditions: Table 3; Human Factor D 80 nM, substrate Z-L-Lys-SBzl; read-out: IC50 (Stars)

| Structure (SMILES) | IC50 [µM] |
| --- | --- |
| Cc1ncc(-c2ccc3c(c2)c([C@H](C)O)nn3CC(=O)N2[C@@H]3C[C@@H]3C[C@H]2C(=O)Nc2cccc(Br)n2)cn1 [Compound 409, (1R,3S,5R)—N-(6-Bromopyridin-2-yl)-2-(2-(3-((S)-1-hydroxyethyl)-5-(2-methylpyrimidin-5-yl)-1H-indazol-1-yl)acetyl)-2-azabicyclo[3.1.0]hexane-3-carboxamide] | < 1 |
| CC(=O)c1nn(CC(=O)N2C[C@H](F)C[C@H]2C(=O)Nc2cccc(Br)n2)c2ccc(-c3cnc(CO)nc3)cc12 [Compound 374, (2S,4R)-1-(2-(3-Acetyl-5-(2-(hydroxymethyl)pyrimidin-5-yl)-1H-indazol-1-yl)acetyl)-N-(6-bromopyridin-2-yl)-4-fluoropyrrolidine-2-carboxamide] | < 1 |
| COc1cc(Br)nc(NC(=O)[C@@H]2C[C@H]3C[C@H]3N2C(=O)Cn2nc(C(C)=O)c3cc(-c4cnc(C)nc4)ccc32)c1 [Compound 366] | < 1 |
| CC(=O)c1nn(CC(=O)N2C[C@H](F)C[C@H]2C(=O)Nc2cncc(Br)n2)c2ccc(-c3cnc(CO)nc3)cc12 [Compound 398, (2S,4R)-1-(2-(3-Acetyl-5-(2-(hydroxymethyl)pyrimidin-5-yl)-1H-indazol-1-yl)acetyl)-N-(6-bromopyrazin-2-yl)-4-fluoropyrrolidine-2-carboxamide] | < 1 |
| COC(=O)c1cc(Cl)nc(NC(=O)[C@@H]2C[C@@H](F)CN2C(=O)Cn2nc(C(C)=O)c3cc(-c4cnc(C)nc4)ccc32)c1 [Compound 396, Methyl 2-((2S,4R)-1-(2-(3-Acetyl-5-(2-methylpyrimidin-5-yl)-1H-indazol-1-yl)acetyl)-4-fluoropyrrolidine-2-carboxamido)-6-chloroisonicotinate] | < 1 |
| CC(=O)c1nn(CC(=O)N2C[C@H](F)C[C@H]2C(=O)Nc2ccn(CC(F)F)n2)c2ccc(-c3cnc(C)nc3)cc12 [Compound 401, (2S,4R)-1-(2-(3-Acetyl-5-(2-methylpyrimidin-5-yl)-1H-indazol-1-yl)acetyl)-N-(1-(2,2-difluoroethyl)-1H-pyrazol-3-yl)-4-fluoropyrrolidine-2-carboxamide] | < 1 |
| CC(=O)c1cn(CC(=O)N2C[C@H](F)C[C@H]2C(=O)Nc2cccc(-c3ccccc3Cl)c2F)c2ccc(-c3cnc(O[C@@H]4CO[C@H]5[C@@H]4OC[C@H]5O)nc3)cc12 [Compound 333, (2S,4R)-1-(2-(3-acetyl-5-(2-(((3R,3aR,6R,6aR)-6-hydroxyhexahydrofuro [3,2-b]furan-3-yl)oxy)pyrimidin-5-yl)-1H-indol-1-yl)acetyl)-N-(2′-chloro-2-fluoro-[1,1′-biphenyl]-3-yl)-4-fluoropyrrolidine-2-carboxamide] | < 1 |
